Measured values published in patent publication US20250352498A1, “PHARMACEUTICAL FORMULATIONS CONTAINING PHENYLBUTYRATE AND METHODS THEREOF” (AARDVARK THERAPEUTICS INC., priority 2024, published 2025).

Substance: sodium phenylbutyrate
- solubility in hydrophilic solvent (hydrophilic solvent): highly soluble
- solubility in hydrophobic excipients (hydrophobic excipients): poorly soluble
- water solubility (water): freely water soluble
